Assay results published in US20040072750A1, “Compounds and methods for the modulation of CD154” (priority 2001, published 2004).
Bridge positions count the residues as written; N and C are the ends. Square brackets hold non-standard residues; d marks the D form. Peptide text beside a SMILES is read from it. hArg = N=C(N)NCCCC[C@H](N)C(=O)O; Mpa = O=C(O)CCS

B1: rsCD154: bacterially expressed recombinant human soluble CD154 (108 a.a-261 a.a.), 18-kDa protein (protein)
chain: ENSFEMQKGDQNPQIAAHVISEASSKTTSVLQWAEKGYYTMSNNLVTLENGKQLTVKRQGLYYIYAQVTFCSNREASSQAPFIASLCLKSPGRFERILLRAANTHSSAKPCGQQSIHLGGVFELQPGASVFVNVTDPSQVSHGTGFTSFGLLKL

Legend:
[1] = tested on: platelets; experiment: Platelet function (Accumetrics RPFA) in patients undergoing PCI; format: in vivo, human; settings: 10 minutes post final bolus
Protocol: (§1) Patients (n=45) undergoing PCI were enrolled. The study was approved by the IRB and all patients signed informed consent. Exclusion criteria included higher risk clinical scenarios mandating, according to institutional clinical practice, the use of GP IIb/IIIa antagonists (i.e., acute ST elevation MI or non q-wave MI with CPK elevation, pain at rest with EKG changes <24 hours, visible thrombus, pain refractory to heparin), pre-procedural GP IIb/IIIa inhibitor treatment, restenotic and graft lesions, and standard conditions excluding GP IIb/IIIa inhibitor use.
(§2) All patients received aspirin and intravenous heparin (50-70U/kg) monitored by activated clotting time (ACT) during the procedure. Patients were administered either no GP IIb/IIIa inhibitor, eptifibatide (180 μg/kg double bolus followed by 2 μg/kg/min for 16 h), or abciximab (0.25 mg/kg bolus intravenously followed by 0.125 μg/kg/min for 12 h) at the discretion of the primary operator. Platelet function was monitored using PPACK-anticoagulated blood and the Accumetrics RPFA device at baseline and 10 min post-final bolus. Interventionalists were blinded to RPFA results and not permitted to modify GP IIb-IIIa inhibitor dosing. Post-PCI, patients received clopidogrel (300 mg PO) followed by 75 mg daily.

[2] = Plasma inflammatory markers after PCI (ELISA); format: in vivo, human
Protocol: as §1, §2
Venous blood samples were collected prior to (t=0) and at 30 minutes, 2 hours, and 24 hours after the angioplasty wire was advanced across the lesion. Blood was collected into 10 mL tubes with either EDTA (for sCD 154 analysis) or PPACK (for all other analyses) anticoagulant, centrifuged at 4° C., and stored at −80° C. until analysis.
Inflammatory markers in plasma samples were quantified by commercially available ELISA for sCD154 (Alexis BioChemical) with modification (12), RANTES, IL6, sICAM-1 (BioSource), and CRP (Alpha Diagnostic International).
Primary endpoint data are presented as mean±SE. Data were log transformed to achieve a normal distribution verified by Kolmogorov-Smirnov test for normality. Statistical comparisons were performed using two-way ANOVA to determine a difference in mean values over time between the 3 groups. Pair-wise comparisons were performed when the ANOVA false-positive rate was ≦5%. A Bonferroni corrective for 3 pair-wise comparisons was applied, in which the p-value of […] was used to signify a false-positive rate of 5%. For ANOVA with a false-positive rate of ≧5%, the pair-wise comparisons were reported to be statistically nonsignificant (NS). Baseline and procedural characteristics data were analyzed with standard one way ANOVA for continuous data in more than 3 groups and a student's t-test for comparison of 2 groups. A Mann-Whitney Rank Sum test was used for nominal data. Statistical significance was assumed if the false positive rate was ≦5%.

[3] = tested on: washed platelets; experiment: β3 integrin tyrosine-759 phosphorylation staining of platelets spread on sCD154; format: cell-based, human; settings: platelets spread on 10 μg/ml sCD154 coated cover slips
Protocol: Further, cover slips were coated with 10 μg/ml sCD154 for 2 hours at 37° C. and blocked with 5% crystalline BSA (Sigma chemicals). 100 μl of washed platelets at 10^7/ml were allowed to spread for 1 hour at 37° C. Non-adhered platelets were washed off with PBS. Adhered platelets were fixed with 4% para-formaldehyde and permeabilized with 0.5% Triton X-100 and 0.5% BSA in PBS. Permeabilized platelets were blocked with 3% goat serum and 2% BSA for 30 min. followed by incubation with a IIIa(p3) integrin cytoplasmic tyrosine-759 phospho-specific polyclonal antibody for 2 hours at room temperature. After 30 minutes washing with PBS containing 0.1% Triton X-100 and 0.5% BSA, the coverslips were incubated with a Alexa 596 goat anti-rabbit antibody and Alexa fluor 488 phalloidin for 40 min. followed by a brief wash and mounted on slides with VECTASHIELD (Vector laboratories, Burlingame, Calif.). Images were recorded using a digital camera, Hamamatsu, ORCA-ER attached to a Nikon fluorescence microscope, eclipse E1000 (Technical Instruments, San Francisco, Calif.). […] The staining was inhibited by β3 759 phospho-peptide confirming the specificity of the antibody (FIG. 11b).

| Molecule | Platelet inhibition (% inhibition) [1] [%] | rise of sICAM-1 and IL-6 after PCI ([2]; 2-24 hours after PCI, not statistically significant) | plasma sCD154 levels after PCI ([2]; 30 minutes, 2 hours, 24 hours versus baseline) | plasma RANTES levels after PCI ([2]; versus baseline) | staining with β3 integrin 759-tyrosine phosphospecific antibody [3] |
| --- | --- | --- | --- | --- | --- |
| N=C(N)NCCCC[C@@H]1NC(=O)CCSSC[C@@H](C(N)=O)NC(=O)[C@@H]2CCCN2C(=O)[C@H](Cc2c[nH]c3ccccc23)NC(=O)[C@H](CC(=O)O)NC(=O)CNC1=O [eptifibatide] ([Mpa][hArg]GDWPC-NH2; disulfide 1-7) | 98±3 | lowest level of rise | significantly lower than baseline | significant reductions |  |
| B1 |  |  |  |  | stained positive |
